Assay results from ChEMBL document CHEMBL1129993, “Synthesis and biological characterization of 1,4,5,6-tetrahydropyrimidine and 2-amino-3,4,5,6-tetrahydropyridine derivatives as selective m1 agonists” (J Med Chem, 1997).

Experiments:
[1] = target: T1, Muscarinic acetylcholine receptor M1 (Mus musculus) (UniProt P12657); experiment: Percent inhibition (high) of [3H](R)-QNB binding to Muscarinic acetylcholine receptor M1 expressed in A9 L cell line in the absence of 300 uM GTP-gamma-S; format: cell-based; details: A9L
T1 sequence (whole entry): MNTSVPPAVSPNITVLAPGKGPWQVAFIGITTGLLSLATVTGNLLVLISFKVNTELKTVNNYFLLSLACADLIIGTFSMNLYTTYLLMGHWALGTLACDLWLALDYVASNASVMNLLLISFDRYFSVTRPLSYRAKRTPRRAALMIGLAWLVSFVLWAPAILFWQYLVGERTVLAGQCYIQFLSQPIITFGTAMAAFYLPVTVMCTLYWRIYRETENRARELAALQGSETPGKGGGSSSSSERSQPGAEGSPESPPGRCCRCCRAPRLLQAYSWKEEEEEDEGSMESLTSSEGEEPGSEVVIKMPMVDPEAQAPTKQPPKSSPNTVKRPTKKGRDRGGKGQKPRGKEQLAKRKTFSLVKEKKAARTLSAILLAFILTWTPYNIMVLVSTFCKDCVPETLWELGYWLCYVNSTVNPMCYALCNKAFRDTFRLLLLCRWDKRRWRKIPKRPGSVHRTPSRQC

[2] = target: T2, Muscarinic acetylcholine receptor M2 (Mus musculus) (UniProt Q9ERZ4); details: A9L
T2 sequence (whole entry): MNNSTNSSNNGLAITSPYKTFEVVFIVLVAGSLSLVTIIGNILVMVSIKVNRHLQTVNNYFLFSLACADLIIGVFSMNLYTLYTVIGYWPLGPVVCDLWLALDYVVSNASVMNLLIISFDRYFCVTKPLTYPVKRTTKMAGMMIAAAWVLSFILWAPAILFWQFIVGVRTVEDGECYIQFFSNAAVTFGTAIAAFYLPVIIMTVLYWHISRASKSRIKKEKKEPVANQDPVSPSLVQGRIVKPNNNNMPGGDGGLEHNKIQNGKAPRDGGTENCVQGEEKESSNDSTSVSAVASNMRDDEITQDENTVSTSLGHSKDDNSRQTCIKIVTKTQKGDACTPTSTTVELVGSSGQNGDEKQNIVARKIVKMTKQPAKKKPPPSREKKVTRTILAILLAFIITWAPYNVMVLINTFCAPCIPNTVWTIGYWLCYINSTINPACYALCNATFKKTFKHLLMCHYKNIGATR

[3] = target: Muscarinic acetylcholine receptor M3 (Mus musculus) (UniProt Q9ERZ3); details: A9L
Chain of Muscarinic acetylcholine receptor M3 (Mus musculus) (Q9ERZ3 whole entry): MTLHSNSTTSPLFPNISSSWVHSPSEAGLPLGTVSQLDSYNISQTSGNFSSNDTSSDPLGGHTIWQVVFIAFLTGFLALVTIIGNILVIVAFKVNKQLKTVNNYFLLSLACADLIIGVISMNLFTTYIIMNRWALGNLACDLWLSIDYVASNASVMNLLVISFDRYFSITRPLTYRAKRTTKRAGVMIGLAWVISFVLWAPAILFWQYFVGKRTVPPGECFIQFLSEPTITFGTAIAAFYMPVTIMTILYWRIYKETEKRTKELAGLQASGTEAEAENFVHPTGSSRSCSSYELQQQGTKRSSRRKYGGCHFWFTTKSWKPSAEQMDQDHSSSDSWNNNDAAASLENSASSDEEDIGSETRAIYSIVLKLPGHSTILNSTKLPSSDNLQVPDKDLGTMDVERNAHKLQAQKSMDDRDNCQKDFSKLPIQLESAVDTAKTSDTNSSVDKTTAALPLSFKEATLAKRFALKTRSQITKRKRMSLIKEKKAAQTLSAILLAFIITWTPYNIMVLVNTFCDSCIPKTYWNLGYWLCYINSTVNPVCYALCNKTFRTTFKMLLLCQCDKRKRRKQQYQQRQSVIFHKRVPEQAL
Description: Binding affinity (low) of [3H](R)-QNB binding to Muscarinic acetylcholine receptor M3 expressed in A9 L cell line

[4] = target: Muscarinic acetylcholine receptor M3 (Mus musculus) (UniProt Q9ERZ3); experiment: Percent inhibition (high) of [3H](R)-QNB binding to Muscarinic acetylcholine receptor M3 expressed in A9 L cell line; format: cell-based; details: A9L, concentration not given here
[5] = target: Muscarinic acetylcholine receptor M3 (Mus musculus) (UniProt Q9ERZ3); experiment: Binding affinity (high) of [3H](R)-QNB binding to Muscarinic acetylcholine receptor M3 expressed in A9 L cell line; format: cell-based; details: A9L
[6] = target: T2, Muscarinic acetylcholine receptor M2 (Mus musculus); details: A9L; remark: listed apart in the source

SMILES | inhibition [1] | KL [2] | KL [3] | inhibition [4] | KH [5] | KH [6]
CC#CCOC(=O)C1CN=CNC1 (stereo not given) | 23.4% |  |  |  |  | 
C#CCOC(=O)C1CN=CNC1 (stereo not given) | 31.5% |  |  |  |  | 
C#CCCOC(=O)C1CN=CNC1 (stereo not given) | 23.2% |  |  |  |  | 
COC(=O)C1CN=CNC1 (stereo not given) | 23.5% | 3.3 nM | 3.3 nM |  |  | 
CCCC#Cc1noc(C2CN=CNC2)n1 (stereo not given) | 32.5% |  |  |  |  | 
Cc1noc(C2CN=CNC2)n1 (stereo not given) | 30.9% | 0.46 nM | 0.57 nM | 95% |  | 
C[N+](C)(C)CCOC(N)=O |  | 12 nM | 8.4 nM | 19% | 56 nM | 0.81 nM
Cc1noc(C2=CCCN(C)C2)n1 |  | 0.087 nM | 0.46 nM | 29% | 16 nM | 
